Entries after “also recorded” stand apart in the source; their conditions may differ.
System: mouse vibrissa follicles
Experiment: Mouse vibrissa organ culture system
Format: cell-based, mice
Conditions: 4 days
Method: Whisker pads were isolated from three 5 week old female C57/BL mice and were shortly immersed in 70% ethanol in phosphate-buffered saline (PBS), followed by a 10 minute incubation in William's E medium containing 400 U/ml penicillin, 400 μg/ml streptomycin, and 1.0 μg/ml fungizone (all from GibcoBRL). Vibrissa follicles in the anagen growth phase were isolated under a dissecting microscope, and the part of the vibrissa shaft that extend over the epidermal surface was cut off. Vibrissa follicles were then incubated on Millapore membranes in William's E medium alone (n-8), in medium containing 50 ng/ml recombinant murine VEGF (R&D Systems; n=6), or medium containing 5% fetal bovine serum (FBS; n=8). The media were replaced by fresh media after 2 days, and the follicles were incubated over a total period of 4 days. After 4 days, the length of the outgrowing hair shafts was measured by image analysis of digital pictures, taken under a Nikon E600 microscope.
In addition, whisker follicles were isolated and cultured as described above. Seven follicles were treated with 5 μg/ml of a goat anti-mouse VEGF neutralizing antibody (R&D Systems), and 8 follicles were treated with 5 μg/ml of normal goat IgG.

VEGF
average hair growth (length of outgrowing hair shafts) (50 ng/ml recombinant murine VEGF, control 1.963±0.101 mm): 1.959±0.086 mm
effect on in vitro hair growth compared with control (vibrissa organ culture, absence of a vascular system): no significant differences; also recorded: did not influence

Source: US6773881B2, “Methods of modulating hair growth” (The General Hospital Corporation, priority 2000, dated 2004)
